Legend:
HER2 [1] = molecular target: T1, HER2 (Homo sapiens, UniProt P04626); assay: inhibition of HER2 in vitro; type: biochemical
Excerpt: (§1) Tucatinib inhibits the HER2-driven mitogen-activated protein and PI3 kinase signaling pathways, resulting in inhibition of tumor cell proliferation, survival, and metastasis.

HER2 [2] = molecular target: T1, HER2; assay: HER2 internalization assay using Trastuzumab-AF488; type: cell-based; settings: tucatinib 100 nM, SK-BR-3 cells, imaged at time points spanning 72 hours
Protocol: (§2) To probe the dynamics of HER2 at the cell surface upon binding to antibody therapeutics in the presence or absence of tucatinib (100 nM), SK-BR-3 cells were incubated with fluorescently-labeled trastuzumab (Trastuzumab-AF488) to mark HER2 at the cell surface. Excess antibody was washed out. Cells were imaged at time points spanning 72 hours to observe internalization of surface-bound antibody. […] Concurrent experiments were conducted with trastuzumab labeled with QF (Trastuzumab-QF) […], a quenched fluorophore which fluoresces upon lysosomal processing and can serve as a proxy for antibody catabolism.

HER2 [3] = molecular target: T1, HER2; assay: HER2 internalization assay using Trastuzumab-QF (lysosomal processing); type: cell-based; settings: tucatinib 100 nM; SK-BR-3 cells; Trastuzumab-QF in the presence of chloroquine
Protocol: as §2

HER2 [4] = molecular target: T1, HER2; assay: cellular signaling assays, selectivity for HER2 compared to EGFR; type: cell-based; set-up: four different HER2-amplified breast cancer cell lines (BT-474, SK-BR-3, HCC-1419, and UACC-893); endogenous in cells; host or cells: BT-474, SK-BR-3, HCC-1419, UACC-893
Excerpt: as §1

HER2 [5] = molecular target: T1, HER2; assay: HER2 total protein levels by western blot analysis (WES system), normalized against GAPDH; type: cell-based; set-up: four different HER2-amplified breast cancer cell lines (BT-474, SK-BR-3, HCC-1419, and UACC-893); endogenous in cells; host or cells: BT-474, SK-BR-3, HCC-1419, UACC-893; settings: 30 nM or 100 nM tucatinib, 24 hours and 48 hours; BT-474, SK-BR-3, HCC-1419 and UACC-893 HER2-amplified breast cancer cell lines
Protocol: (§3) Protein lysates were generated from cells harvested at each time point, HER2 total protein levels were determined by western blot analysis using a WES system, and normalized against GAPDH levels as a loading control. As shown in FIG. 1A-1D, in all four cell lines tested, HER2 total protein levels increased after treatment with tucatinib relative to untreated cell lines. Total HER2 protein levels are shown as a percentage of the total HER2 protein levels of untreated cells. Plasma membrane-bound levels of HER2 were determined by quantitative FACS (qFACS) analysis after exclusion of dead cells. As shown in FIG. 1E-1H, treatment with either 30 nM or 100 nM increased plasma membrane-bound HER2 protein levels in all four cell lines relative to untreated cell lines. Plasma membrane-bound HER2 protein levels are shown as a percentage of the plasma membrane-bound HER2 protein levels of untreated cells.

HER2 [6] = molecular target: T1, HER2; assay: plasma membrane-bound HER2 levels by quantitative FACS (qFACS); type: cell-based; set-up: four different HER2-amplified breast cancer cell lines (BT-474, SK-BR-3, HCC-1419, and UACC-893); endogenous in cells; host or cells: BT-474, SK-BR-3, HCC-1419, UACC-893; settings: 30 nM or 100 nM tucatinib, 24 hours and 48 hours; BT-474, SK-BR-3, HCC-1419 and UACC-893 HER2-amplified breast cancer cell lines
Protocol: as §3

T1 sequence (P04626 23-1255): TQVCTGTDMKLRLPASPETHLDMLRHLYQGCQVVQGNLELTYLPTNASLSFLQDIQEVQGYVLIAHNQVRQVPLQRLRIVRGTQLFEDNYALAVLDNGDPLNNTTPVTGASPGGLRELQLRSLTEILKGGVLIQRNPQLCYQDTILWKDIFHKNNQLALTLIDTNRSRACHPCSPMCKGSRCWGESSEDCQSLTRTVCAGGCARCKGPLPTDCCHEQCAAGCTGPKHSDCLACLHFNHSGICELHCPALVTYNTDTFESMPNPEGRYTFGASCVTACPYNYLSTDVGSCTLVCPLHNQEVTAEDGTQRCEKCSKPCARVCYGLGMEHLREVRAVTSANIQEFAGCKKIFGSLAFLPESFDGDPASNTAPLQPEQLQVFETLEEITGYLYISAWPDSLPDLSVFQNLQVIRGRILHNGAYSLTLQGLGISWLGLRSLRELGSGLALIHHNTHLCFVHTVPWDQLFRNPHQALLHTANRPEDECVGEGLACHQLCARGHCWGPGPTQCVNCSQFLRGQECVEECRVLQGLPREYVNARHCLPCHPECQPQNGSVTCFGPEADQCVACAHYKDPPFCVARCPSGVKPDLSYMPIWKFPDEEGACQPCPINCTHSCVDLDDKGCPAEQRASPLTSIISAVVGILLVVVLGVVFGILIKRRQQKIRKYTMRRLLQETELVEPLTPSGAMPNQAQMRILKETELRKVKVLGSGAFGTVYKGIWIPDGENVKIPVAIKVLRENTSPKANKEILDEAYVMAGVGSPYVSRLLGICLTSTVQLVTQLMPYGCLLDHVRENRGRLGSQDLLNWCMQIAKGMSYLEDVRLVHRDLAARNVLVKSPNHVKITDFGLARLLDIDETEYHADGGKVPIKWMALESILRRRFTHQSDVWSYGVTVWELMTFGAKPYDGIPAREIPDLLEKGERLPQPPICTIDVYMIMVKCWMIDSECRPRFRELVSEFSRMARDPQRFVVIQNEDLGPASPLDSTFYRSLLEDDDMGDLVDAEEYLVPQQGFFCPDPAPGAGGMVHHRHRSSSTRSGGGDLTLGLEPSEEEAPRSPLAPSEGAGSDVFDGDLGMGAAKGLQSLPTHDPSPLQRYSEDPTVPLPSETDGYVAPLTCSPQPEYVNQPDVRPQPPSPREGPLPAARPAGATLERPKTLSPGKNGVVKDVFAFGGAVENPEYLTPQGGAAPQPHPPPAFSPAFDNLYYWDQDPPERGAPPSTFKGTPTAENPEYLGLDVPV

inhibition of HER2 in vitro (HER2 [1]): potent inhibitor of HER2 in vitro
dwell time of HER2 at the cell surface (HER2 [2]): increased
selectivity for HER2 compared to the closely related kinase EGFR (HER2 [4]): > 1000 fold
HER2 total protein levels relative to untreated cell lines (HER2 [5]): increased
plasma membrane-bound HER2 protein levels relative to untreated cell lines (HER2 [6]): increased
SMILES: Cc1cc(Nc2ncnc3ccc(NC4=NC(C)(C)CO4)cc23)ccc1Oc1ccn2ncnc2c1 [tucatinib, N^4-(4-([1,2,4]triazolo[1,5-a]pyridin-7-yloxy)-3-methylphenyl)-N^6-(4,4-dimethyl-4,5-dihydrooxazol-2-yl) quinazoline-4,6-diamine]
internalization and lysosomal processing of HER2-bound antibody (HER2 [3]): rapid internalization and lysosomal processing

From US20260199346A1, “METHODS OF TREATING SOLID TUMORS DRIVEN BY HER2 ALTERATIONS WITH TUCATINIB IN COMBINATION WITH AN ANTI-HER2 ANTIBODY” (Seagen Inc., priority 2020, published 2026)
